Laboratory results taken from patent US12371454B2, “Cyclic peptide compound having Kras inhibitory action” (priority 2019, dated 2025).
Starred links: 1 amine or outer side, 2 acyl side, 3 side chain; linkers in the order of their positions; H or OH if unused. Positions of bridges follow the written chain, without caps; N, C: chain ends. Non-standard residues stand in square brackets, D forms with d. Residues, ends and D or L forms follow the SMILES beside them. *: point of attachment. hPhe(3-Cl-4-CF3) = N[C@@H](CCc1ccc(C(F)(F)F)c(Cl)c1)C(=O)O; hPhe(3-F,4-CF3) = N[C@@H](CCc1ccc(C(F)(F)F)c(F)c1)C(=O)O; NMePhe(4-CF3) = CN[C@@H](Cc1ccc(C(F)(F)F)cc1)C(=O)O; 3Oxa8azabicyclo(3.2.1)octane = C1CC2COCC1N2*; NMePhe(4-Cl) = CN[C@@H](Cc1ccc(Cl)cc1)C(=O)O; NMedβ3hAla = C[C@H](CC(=O)[*:2])N(C)[*:1]; NMeGly(cPent) = CN[C@H](C(=O)O)C1CCCC1; NMeAla(cPr) = CN[C@@H](CC1CC1)C(=O)O; NMeGly(cBu) = CN[C@H](C(=O)O)C1CCC1; NMeCha = CN[C@@H](CC1CCCCC1)C(=O)O; Hyp = O=C(O)[C@@H]1C[C@@H](O)CN1; NEtLeu = CCN[C@@H](CC(C)C)C(=O)O; NMeAhp(2) = CCCCC[C@H](NC)C(=O)O; NMeChg = CN[C@H](C(=O)O)C1CCCCC1; NMeI = CC[C@H](C)[C@H](NC)C(=O)O; NMeD = CN[C@@H](CC(=O)O)C(=O)O; NMeL = CN[C@@H](CC(C)C)C(=O)O; NMeV = CN[C@H](C(=O)O)C(C)C; d(β3hA) = C[C@@H](N)CC(=O)O; Azetidin(1-yl) = C1CN(*)C1; NMeS = CN[C@@H](CO)C(=O)O; NMeA = CN[C@@H](C)C(=O)O; Piperidide = C1CCN(*)CC1; Pyrrolidide = C1CCN(*)C1; Ac5c = NC1(C(=O)O)CCCC1; Aze = O=C(O)[C@@H]1CCN1; Cyclobutyl = C1CC(*)C1; Aib = CC(C)(N)C(=O)O; Cyclopropyl = C1CC1*; NEtG = CCNCC(=O)O; Sar = CNCC(=O)O; Propyl = CCC*

System: Human pancreatic cancer cell line AsPC-1
Assay: Measurement of AsPC-1 cell growth inhibition (AsPC-1 CGI)
Format: cell-based
Conditions: 96 h
Summary of the method: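 AsPC-1 cells in 15% FBS RPMI-1640 were exposed to test compound for 96 hours at 37° C, with CellTiter-Glo as endpoint.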

| Compound | IC50 |
| --- | --- |
| CCCCC[C@H]1C(=O)N[C@@H]([C@@H](C)CC)C(=O)N(C)[C@@H](C)C(=O)N2CC[C@H]2C(=O)N(C)[C@@H](COCCC)C(=O)N(C)CC(=O)N[C@@H](CCc2ccc(C(F)(F)F)c(Cl)c2)C(=O)N2CCC[C@H]2C(=O)NC2(CCCC2)C(=O)N(C)[C@@H](C2CCCC2)C(=O)N(C)[C@H](C(=O)N2C3CCC2COC3)CC(=O)N1C [Compound 622] ([NMeAhp(2)]I[NMeA][Aze][NMeS](Propyl)[Sar][hPhe(3-Cl-4-CF3)]P[Ac5c][NMeGly(cPent)][NMeD]-{3Oxa8azabicyclo(3.2.1)octane}; lactam N-11) | 20 to 50 nM |
| CCO[C@@H]1C[C@H]2C(=O)NC3(CCCC3)C(=O)N(C)[C@@H](C3CCCCC3)C(=O)N(C)[C@H](C)CC(=O)N(C)[C@@H](CC(C)C)C(=O)N[C@@H]([C@@H](C)CC)C(=O)N(C)[C@@H](C)C(=O)N3CC[C@H]3C(=O)N(C)[C@@H](Cc3ccc(C(F)(F)F)cc3)C(=O)N(C)CC(=O)N[C@@H](CCc3ccc(C(F)(F)F)c(Cl)c3)C(=O)N2C1 [Compound 652] (cyclo([Ac5c][NMeChg][NMedβ3hAla][NMeL]I[NMeA][Aze][NMePhe(4-CF3)][Sar][hPhe(3-Cl-4-CF3)][Hyp](Et))) | 50 to 100 nM |
| CC[C@H](C)[C@@H]1NC(=O)[C@H](CC(C)C)N(C)C(=O)C[C@@H](C)NC(=O)[C@H](C(C)C)N(C)C(=O)C2(CCCC2)NC(=O)[C@@H]2CCCN2C(=O)[C@H](CCc2ccc(C(F)(F)F)c(Cl)c2)NC(=O)CN(C)C(=O)[C@H](CC2CCCCC2)N(C)C(=O)[C@@H]2CCN2C(=O)CN(C)C1=O [Compound 663] (cyclo([Ac5c][NMeV][d(β3hA)][NMeL]I[Sar][Aze][NMeCha][Sar][hPhe(3-Cl-4-CF3)]P)) | 100 to 500 nM |
| CC[C@H](C)[C@@H]1NC(=O)[C@H](CC(C)C)N(CC)C(=O)C[C@@H](C(=O)N2CCCCC2)N(C)C(=O)[C@H](C(C)C)N(C)C(=O)C2(CCCC2)NC(=O)[C@@H]2CCCN2C(=O)[C@H](CCc2ccc(C(F)(F)F)c(Cl)c2)NC(=O)CN(C)C(=O)[C@H](CC2CCCCC2)N(C)C(=O)[C@@H]2CCN2C(=O)[C@H](C)N(C)C1=O [Compound 667] ([NEtLeu]I[NMeA][Aze][NMeCha][Sar][hPhe(3-Cl-4-CF3)]P[Ac5c][NMeV][NMeD]-Piperidide; lactam N-11) | 100 to 500 nM |
| CC[C@H](C)[C@@H]1NC(=O)[C@H](CC(C)C)N(C)C(=O)C[C@@H](C(=O)N2CCCCC2)N(C)C(=O)[C@H](C2CCC2)N(C)C(=O)C2(CCCC2)NC(=O)[C@@H]2CCCN2C(=O)[C@H](CCc2ccc(C(F)(F)F)c(Cl)c2)NC(=O)CN(C)C(=O)[C@H](CC2CCCCC2)N(C)C(=O)[C@@H]2CCN2C(=O)[C@H](C)N(C)C1=O [Compound 672] ([NMeL]I[NMeA][Aze][NMeCha][Sar][hPhe(3-Cl-4-CF3)]P[Ac5c][NMeGly(cBu)][NMeD]-Piperidide; lactam N-11) | 100 to 500 nM |
| CC[C@H](C)[C@@H]1NC(=O)[C@H](CC(C)C)N(C)C(=O)C[C@@H](C(=O)N2CCCCC2)N(C)C(=O)[C@H]([C@@H](C)CC)N(C)C(=O)C2(CCCC2)NC(=O)[C@@H]2CCCN2C(=O)[C@H](CCc2ccc(C(F)(F)F)c(F)c2)NC(=O)CN(C)C(=O)[C@H](C2CCCC2)N(C)C(=O)[C@@H]2CCN2C(=O)[C@H](C)N(C)C1=O [Compound 674] ([NMeL]I[NMeA][Aze][NMeGly(cPent)][Sar][hPhe(3-F,4-CF3)]P[Ac5c][NMeI][NMeD]-Piperidide; lactam N-11) | 50 to 100 nM |
| CC[C@H](C)[C@@H]1NC(=O)[C@H](CC(C)C)N(C)C(=O)C[C@@H](C(=O)N2CCCCC2)N(C)C(=O)[C@H](C(C)C)N(C)C(=O)C2(CCCC2)NC(=O)[C@@H]2CCCN2C(=O)[C@H](CCc2ccc(C(F)(F)F)c(Cl)c2)NC(=O)CN(C)C(=O)[C@H](CC2CCCCC2)N(C)C(=O)[C@@H]2CCN2C(=O)[C@H](COC2CC2)N(C)C1=O [Compound 676] ([NMeL]I[NMeS](Cyclopropyl)[Aze][NMeCha][Sar][hPhe(3-Cl-4-CF3)]P[Ac5c][NMeV][NMeD]-Piperidide; lactam N-11) | 100 to 500 nM |
| CC[C@H](C)[C@@H]1NC(=O)[C@H](CC(C)C)N(C)C(=O)C[C@@H](C(=O)N(C)C)NC(=O)[C@H](C2CCCC2)N(C)C(=O)C2(CCCC2)NC(=O)[C@@H]2CCCN2C(=O)[C@H](CCc2ccc(C(F)(F)F)c(Cl)c2)NC(=O)CN(C)C(=O)[C@H](CC2CCCCC2)N(C)C(=O)[C@@H]2CCN2C(=O)[C@H](C)N(C)C1=O [Compound 677] ([NMeL]I[NMeA][Aze][NMeCha][Sar][hPhe(3-Cl-4-CF3)]P[Ac5c][NMeGly(cPent)]D-NMe2; lactam N-11) | 50 to 100 nM |
| CC[C@H](C)[C@@H]1NC(=O)[C@H](CC(C)C)N(C)C(=O)C[C@@H](C(=O)N2CCCCC2)N(C)C(=O)[C@H](C(C)C)N(C)C(=O)C2(CCCC2)NC(=O)[C@@H]2CCCN2C(=O)[C@H](CCc2ccc(C(F)(F)F)c(Cl)c2)NC(=O)CN(C)C(=O)[C@H](Cc2ccc(Cl)cc2)N(C)C(=O)[C@@H]2CCN2C(=O)[C@H](C)N(C)C1=O [Compound 680] ([NMeL]I[NMeA][Aze][NMePhe(4-Cl)][Sar][hPhe(3-Cl-4-CF3)]P[Ac5c][NMeV][NMeD]-Piperidide; lactam N-11) | 100 to 500 nM |
| CCCOC[C@H]1C(=O)N(C)CC(=O)N[C@@H](CCc2ccc(C(F)(F)F)c(F)c2)C(=O)N2CCC[C@H]2C(=O)NC2(CCCC2)C(=O)N(C)[C@@H]([C@@H](C)CC)C(=O)N(C)[C@H](C(=O)N2CCCC2)CC(=O)N(C)[C@@H](CC(C)C)C(=O)N[C@@H]([C@@H](C)CC)C(=O)N(C)[C@@H](C)C(=O)N2CC[C@H]2C(=O)N1C [Compound 684] ([NMeL]I[NMeA][Aze][NMeS](Propyl)[Sar][hPhe(3-F,4-CF3)]P[Ac5c][NMeI][NMeD]-Pyrrolidide; lactam N-11) | 20 to 50 nM |
| CCCOC[C@H]1C(=O)N(C)CC(=O)N[C@@H](CCc2ccc(C(F)(F)F)c(F)c2)C(=O)N2CCC[C@H]2C(=O)NC2(CCCC2)C(=O)N(C)[C@@H]([C@@H](C)CC)C(=O)N(C)[C@H](C)CC(=O)N(C)[C@@H](CC(C)C)C(=O)N[C@@H]([C@@H](C)CC)C(=O)N(C)[C@@H](C)C(=O)N2CC[C@H]2C(=O)N1C [Compound 694] (cyclo([Ac5c][NMeI][NMedβ3hAla][NMeL]I[NMeA][Aze][NMeS](Propyl)[Sar][hPhe(3-F,4-CF3)]P)) | 20 to 50 nM |
| CC[C@H](C)[C@@H]1NC(=O)[C@H](CC(C)C)N(C)C(=O)C[C@@H](C(=O)N2CCCC2)NC(=O)[C@H](C2CCCC2)N(C)C(=O)C2(CCCC2)NC(=O)[C@@H]2CCCN2C(=O)[C@H](CCc2ccc(C(F)(F)F)c(Cl)c2)NC(=O)CN(C)C(=O)[C@H](CC2CCCCC2)N(C)C(=O)[C@@H]2CCN2C(=O)[C@H](C)N(C)C1=O [Compound 700] ([NMeL]I[NMeA][Aze][NMeCha][Sar][hPhe(3-Cl-4-CF3)]P[Ac5c][NMeGly(cPent)]D-Pyrrolidide; lactam N-11) | 100 to 500 nM |
| CC[C@H](C)[C@@H]1NC(=O)[C@H](CC(C)C)N(C)C(=O)C[C@@H](C(=O)N2CCC2)N(C)C(=O)[C@H](C2CCCC2)N(C)C(=O)C2(CCCC2)NC(=O)[C@@H]2CCCN2C(=O)[C@H](CCc2ccc(C(F)(F)F)c(Cl)c2)NC(=O)CN(CC)C(=O)[C@H](CC2CCCCC2)N(C)C(=O)[C@@H]2CCN2C(=O)[C@H](C)N(C)C1=O [Compound 726] ([NMeL]I[NMeA][Aze][NMeCha][NEtG][hPhe(3-Cl-4-CF3)]P[Ac5c][NMeGly(cPent)][NMeD]-{Azetidin(1-yl)}; lactam N-11) | 20 to 50 nM |
| CC[C@H](C)[C@@H]1NC(=O)[C@H](C(C)C)N(C)C(=O)C[C@@H](C)NC(=O)[C@H](CC(C)C)N(C)C(=O)C(C)(C)NC(=O)[C@H](CC(C)C)N(C)C(=O)[C@H](CCc2ccc(C(F)(F)F)c(Cl)c2)NC(=O)CN(C)C(=O)[C@H](Cc2ccc(Cl)cc2)N(C)C(=O)CN(C)C(=O)CN(C)C1=O [Compound 740] (cyclo([Aib][NMeL][d(β3hA)][NMeV]I[Sar][Sar][NMePhe(4-Cl)][Sar][hPhe(3-Cl-4-CF3)][NMeL])) | 100 to 500 nM |
| CC[C@H](C)[C@@H]1NC(=O)[C@H](C)N(C)C(=O)C[C@@H](C)NC(=O)[C@H](C2CCCC2)N(C)C(=O)C2(CCCC2)NC(=O)[C@@H]2CCCN2C(=O)[C@H](CCc2ccc(C(F)(F)F)c(Cl)c2)NC(=O)CN(C)C(=O)[C@H](Cc2ccc(C(F)(F)F)cc2)N(C)C(=O)[C@@H]2CCCN2C(=O)CN(C)C1=O [Compound 749] (cyclo([Ac5c][NMeGly(cPent)][d(β3hA)][NMeA]I[Sar]P[NMePhe(4-CF3)][Sar][hPhe(3-Cl-4-CF3)]P)) | 100 to 500 nM |
| CC[C@H](C)[C@@H]1NC(=O)[C@H](COC2CCC2)N(C)C(=O)C[C@@H](C(=O)N2CCCCC2)N(C)C(=O)[C@H](C(C)C)N(C)C(=O)C2(CCCC2)NC(=O)[C@@H]2CCCN2C(=O)[C@H](CCc2ccc(C(F)(F)F)c(Cl)c2)NC(=O)CN(C)C(=O)[C@H](CC2CCCCC2)N(C)C(=O)[C@@H]2CCN2C(=O)[C@H](C)N(C)C1=O [Compound 755] ([NMeS](Cyclobutyl)I[NMeA][Aze][NMeCha][Sar][hPhe(3-Cl-4-CF3)]P[Ac5c][NMeV][NMeD]-Piperidide; lactam N-11) | 100 to 500 nM |
| CC[C@H](C)[C@@H]1NC(=O)[C@H](CC2CC2)N(C)C(=O)C[C@@H](C)NC(=O)[C@H](C(C)C)N(C)C(=O)C2(CCCC2)NC(=O)[C@@H]2CCCN2C(=O)[C@H](CCc2ccc(C(F)(F)F)c(Cl)c2)NC(=O)CN(C)C(=O)[C@H](CC2CCCCC2)N(C)C(=O)[C@@H]2CCN2C(=O)[C@H](C)N(C)C1=O [Compound 771] (cyclo([Ac5c][NMeV][d(β3hA)][NMeAla(cPr)]I[NMeA][Aze][NMeCha][Sar][hPhe(3-Cl-4-CF3)]P)) | 100 to 500 nM |
| CCCOC[C@H]1C(=O)N(C)CC(=O)N[C@@H](CCc2ccc(C(F)(F)F)c(F)c2)C(=O)N2CCC[C@H]2C(=O)NC2(CCCC2)C(=O)N(C)[C@@H](C2CCCC2)C(=O)N(C)[C@H](C)CC(=O)N(C)[C@@H](CC(C)C)C(=O)N[C@@H]([C@@H](C)CC)C(=O)N(C)[C@@H](C)C(=O)N2CC[C@H]2C(=O)N1C [Compound 776] (cyclo([Ac5c][NMeGly(cPent)][NMedβ3hAla][NMeL]I[NMeA][Aze][NMeS](Propyl)[Sar][hPhe(3-F,4-CF3)]P)) | 20 to 50 nM |
